US20250312323A1 (Cavion, Inc., priority 2018, published 2025)
“And” between values parts separate entries of the source, which are not always exact repeats. Equal entries are not always repeated. Where two headings read alike, the source gives them in different places.

Assays:
[1] = Single-dose crossover pharmacokinetics of IR, MR1 and MR2 capsules (8 mg); type: in vivo, human; set-up: AUC72hr: unit not given beside the values; conditions: plasma, following a single 8 mg dose of IR CX-8998
[2] = type: in vivo; conditions: rat NOAEL 300 mg/kg
[3] = type: in vivo; conditions: dog NOAEL 30 mg/kg
[4] = system: harmaline-induced tremor model in rats; conditions: 3 ascending doses per os; cited from earlier work

| Compound | AUC72hr [1] | Cmax [1] [nM] | Total safety margin, AUC24 hr (animal AUC / human estimated AUC at steady state, 10 mg BID) ([2]; Day 90, female) [fold] | Total safety margin, Css (animal Cmax / human estimated Css at steady state, 10 mg BID) ([2]; Day 90, female) [fold] | Total safety margin, AUC24 hr (animal AUC / human estimated AUC at steady state, 10 mg BID) ([2]; Day 90, male) [fold] | Total safety margin, Css (animal Cmax / human estimated Css at steady state, 10 mg BID) ([2]; Day 90, male) [fold] | Total safety margin, AUC24 hr (animal AUC / human estimated AUC at steady state, 10 mg BID) ([3]; Day 90, female) [fold] | Total safety margin, Css (animal Cmax / human estimated Css at steady state, 10 mg BID) ([3]; Day 90, female) | Total safety margin, AUC24 hr (animal AUC / human estimated AUC at steady state, 10 mg BID) ([3]; Day 90, male) [fold] | Total safety margin, Css (animal Cmax / human estimated Css at steady state, 10 mg BID) ([3]; Day 90, male) [fold] | harmaline-induced tremor [4] | physiologic tremor before administration of harmaline [4] |
| --- | --- | --- | --- | --- | --- | --- | --- | --- | --- | --- | --- | --- |
| C=C(C)c1ccc(CC(=O)N[C@H](C)c2ccc(OCC(F)(F)F)cn2)cc1 [M01] | 6876 | 124 | 13 | 21 | 6.8 | 13 | 5.6 | 8 fold and 8.0 fold | 6.5 | 10 | – | – |
| C[C@@H](NC(=O)Cc1ccc(C(C)(C)O)cc1)c1ccc(OCC(F)(F)F)cn1 [M02] | – | 122 | – | – | – | – | – | – | – | – | – | – |
| CC1(C)C[C@@H](CN2CCC(F)(CNC(=O)c3cc(Cl)cc(Cl)c3)CC2)CCO1 [TTA-P2] | – | – | – | – | – | – | – | – | – | – | dose-dependent response | dose-dependent response to a reduction in physiologic tremor |
